From US9622990B2, “Method for inhibiting cancer cell growth” (priority 2013, dated 2017) come the findings set out here.

Type in all cases: cell-based
The subject of test [1] is DU145 cell line (prostate cancer). Put plainly: MTT cell viability assay, DU145. The conditions noted are these: Homo sapiens; DU-145, MTT, 48 hours; read-out: half maximal inhibitory concentration (IC50), DU-145. As for the experimental part:
(§1) Cell proliferation of A549 cell line (lung cancer), CT26 cell line (colon cancer), DU145 cell line (prostate cancer), HepG2 cell line (liver cancer), MDCK cell line (kidney from canine), PC3 cell line (prostate cancer), MDA-MB-231 cell line (breast cancer) and MCF-7 cell line (breast cancer) was assessed by MTT cell viability assay.
(§2) Above cell lines were cultured in determined medium for 24 hours. Proliferative cells were washed with PBS solution, treated with trypsin-EDTA (1×), centrifuged at 1,200 rpm for 5 min, precipitated the cells and discarded supernatant. The cells were resuspended with 10 ml of fresh medium, and then loaded to 96-well plate. While the assay initiated, 0.01˜200 μg/ml of Antrodia camphorata extract was added in each well, and the plate was incubated for 48 hours, at 37° C., 5% CO2. Each wall was added with 2.5 mg/ml MTT reagent in the dark. After 4 hours of reaction, 100 μl lysis buffer were added to each wall to terminate the reaction. […] The experiment data was represented by means±SD. All data was statistically analyzed by paired-t test, and a P-value less than 0.05 was considered significant.
In general terms: Tetrazolium assays rely on reduction of a dye to a coloured formazan, in cell work by metabolically active cells.

The subject of test [2] is MDCK cell line (kidney from canine). Put plainly: MTT cell viability assay, MDCK. The conditions noted are these: Canis lupus familiaris, 48 hours, read-out: half maximal inhibitory concentration (IC50), MDCK. As for the experimental part:
as §1, §2

In test [3] the test system is PC3 cell line (prostate cancer). The experiment in a line: MTT cell viability assay, PC3. The conditions noted are these: Homo sapiens, PC-3, 48 hours, read-out: half maximal inhibitory concentration (IC50), PC3. As to the method: as §1, §2
In test [4] the test system is CT26 cell line (colon cancer). The experiment in a line: MTT cell viability assay, CT26. The conditions noted are these: Mus musculus, 48 hours, read-out: half maximal inhibitory concentration (IC50), CT26. As for the experimental part:
as §1, §2

The test system of test [5] is MDA-MB-231 cell line (breast cancer). Put plainly: MTT cell viability assay, MDA-MB-231. The conditions noted are these: Homo sapiens; MDA-MB-231, MTT, 48 hours; read-out: half maximal inhibitory concentration (IC50), MDA-MB-231. As to the method: as §1, §2
The test system of a further test is various tumor cells. Put plainly: MTT cell viability assay, statements over all cell lines. The conditions noted are these: for anti cancer activity, in words: summary of table 9. As to the method: as §1, §2
The symbols used in tables respectively represent: 0˜25% cell viability: +/−; 25˜50% cell viability: +; 50˜75% cell viability: ++, 75˜100% cell viability: +++, >100% cell viability: ++++. […] In this experiment, when the drug concentration was diluted to […], DMSO concentration was 0.5%.
Accordingly, above extracts can be used for treating cancers, such as lung cancer, colon cancer, prostate cancer, liver cancer and breast cancer, and the effective compounds contained in those extracts also can be purified.
The half maximal inhibitory concentration (IC50) is a measure of the effectiveness of a compound in inhibiting biological or biochemical function. This quantitative measure indicates how much of a particular drug or other substance (inhibitor) is needed to inhibit a given biological process (e.g. cell apoptosis-inducing activity of a compound) by half. […]

The test system of test [6] is MCF-7 cell line (breast cancer). The experiment in a line: MTT cell viability assay, MCF-7. The conditions noted are these: Homo sapiens, MCF7; MCF-7, MTT, 48 hours; read-out: half maximal inhibitory concentration (IC50), MCF-7. As for the experimental part:
as §1, §2

The subject of test [7] is A549 cell line (lung cancer). Put plainly: MTT cell viability assay, A549. The conditions noted are these: Homo sapiens, 48 hours, read-out: half maximal inhibitory concentration (IC50), A549. As to the method:
as §1, §2

Test [8] deals with HepG2 cell line (liver cancer). Put plainly: MTT cell viability assay, HepG2. The conditions noted are these: Homo sapiens, 48 hours, read-out: half maximal inhibitory concentration (IC50), HepG2. As for the experimental part:
as §1, §2

Converted amounts (≈) assume the structure as drawn. Some results are limits rather than exact numbers.

Consider `COC1=C(OC)[C@H](O)[C@H](C/C=C(\C)CC/C=C(\C)CC(O)C=C(C)C)[C@@H](C)C1=O` (stereo partly shown) [Antrocamol LT1, 4-hydroxy-5-[9-hydroxy-3,7,11-trimethyldodeca-2,6,10-trienyl]-2,3-dimethoxy-6-methyl-cyclohex-2-enone], for which the IC50 was 0.057 ± 0.009 µg/mL (≈ 0.14 µM) in test [1]; over 10 µg/mL in test [2]; 0.057 ± 0.002 µg/mL (≈ 0.14 µM) in [3]; 0.07 ± 0.006 µg/mL (≈ 0.172 µM) in test [4]; 0.98 ± 0.05 µg/mL (≈ 2.41 µM) in test [5]; 0.99 ± 0.08 µg/mL (≈ 2.44 µM) in test [6]. The results for the IC50 in [7] and in test [8] were 0.093 ± 0.003 µg/mL (≈ 0.229 µM) and 0.014 ± 0.001 µg/mL (≈ 0.0344 µM), respectively. The “anti cancer activity, in words” value in the test on various tumor cells is listed as “predominant anti cancer activity”.
As to `COC1=C(OC)[C@H](OC(C)=O)[C@H](C/C=C(\C)CC/C=C(\C)CC(O)C=C(C)C)[C@@H](C)C1=O` (stereo partly shown) [Antrocamol LT2, 4-acetoxy-5-[9-hydroxy-3,7,11-trimethyldodeca-2,6,10-trienyl]-2,3-dimethoxy-6-methyl-cyclohex-2-enone], the IC50 is 0.91 ± 0.08 µg/mL (≈ 2.03 µM) in test [1]; over 10 µg/mL in test [2]; 0.69 ± 0.06 µg/mL (≈ 1.54 µM) in [3]; 0.8 ± 0.03 µg/mL (≈ 1.78 µM) in [4]; 1.03 ± 0.05 µg/mL (≈ 2.3 µM) in test [5]; 0.95 ± 0.11 µg/mL (≈ 2.12 µM) in [6]. Besides, the IC50 in test [7] stood at 1.06 ± 0.22 µg/mL (≈ 2.36 µM); in test [8] it was 0.59 ± 0.02 µg/mL (≈ 1.32 µM). Further, in the test with various tumor cells, the “anti cancer activity, in words” value was “predominant anti cancer activity”.
In the case of `C[S+](C)[O-]` [DMSO], in the test with various tumor cells (DMSO content of the diluted drug, cell line not stated), the “IC50 value of the solvent (50% cell death)” value amounted to 2.34%.
